In patent US11840686B2, “Modulation of prekallikrein (PKK) expression” (Ionis Pharmaceuticals, Inc., priority 2013, dated 2023):
Strand notation (5' to 3'): a small letter for the sugar, then the base; units joined by * are phosphorothioate-linked, units joined directly phosphodiester-linked; [ ] holds rarer units or linkages, { } end groups; capitals alone tell only the bases. e = 2'-O-(2-methoxyethyl) (MOE); [5mC] = 5-methylcytosine; d = 2'-deoxy (DNA)

Experiments:
[1] = tested on: high molecular weight kininogen (HMWK); assay: Western blot quantification of HMWK and HMWK cleavage product by densitometer (Example 14); assay type: in vivo, mouse; conditions: for Quantification of HMWK by densitometer / Quantification of HMWK cleavage product by densitometer: Western blot of blood samples, basal model
Text: Treatment with PKK antisense oligonucleotide results in stabilization of HMWK. Thus, vascular permeability is reduced in ISIS 482584-treated groups in a dose-dependent manner. […] Thus, reduced HMWK is caused by PKK cleavage of HMWK into cleavage products (including bradykinin and HKa). Data are presented in Intensity Units as measured by densitometer.

[2] = tested on: mouse PKK mRNA; assay: Antisense inhibition of murine PKK mRNA in mouse primary hepatocytes (Example 9); assay type: cell-based; conditions: Cytofectin; for % inhibition of mouse PKK mRNA levels: approx. 24 hours
Description: Antisense oligonucleotides targeting a murine PKK nucleic acid were designed and tested for their effects on PKK mRNA in vitro. Cultured mouse primary hepatocytes at a density of 10,000 cells per well were transfected using Cytofectin reagent with 12.5 nM, 25.0 nM, 50.0 nM, 100.0 nM, and 200.0 nM of antisense oligonucleotide. After a treatment period of approximately 24 hours, RNA was isolated from the cells and mouse PKK mRNA levels were measured by quantitative real-time PCR using the murine primer probe set RTS3313 (forward sequence […], designated herein as SEQ ID NO: 2228; reverse sequence […], designated herein as SEQ ID NO: 2229; probe sequence […], designated herein as SEQ ID NO: 2230). PKK mRNA levels were adjusted according to total RNA content, as measured by RIBOGREEN.
The chimeric antisense oligonucleotides were designed as 5-10-5 MOE gapmers. The gapmers are 20 nucleotides in length, wherein the central gap segment is comprised of ten 2′-deoxynucleosides and is flanked on both sides (in the 5′ and 3′ directions) by wings comprising 5 nucleosides each. Each nucleoside in the 5′ wing segment and each nucleoside in the 3′ wing segment has a 2′-O-methoxyethyl modification. The internucleoside linkages throughout each gapmer are phosphorothioate linkages. All cytosine residues throughout each gapmer are 5-methylcytosines.
ISIS 482584 is targeted to SEQ ID NO: 11 (GENBANK Accession No. NM_008455.2) and has a target start site of 1586 and a target stop site of 1605. “Target start site” indicates the 5′-most nucleotide to which the gapmer is targeted. “Target stop site” indicates the 3′-most nucleotide to which the gapmer is targeted.

[3] = tested on: PKK mRNA; assay: PKK mRNA in liver of mice treated with ISIS 461756 (Example 18); assay type: in vivo, mouse
Description: Vascular permeability induced by ISIS 461756, an antisense oligonucleotide which targets murine C1 inhibitor mRNA, increases vascular permeability in mice and replicates the pathology of hereditary angioedema. The effect of ISIS 482584 on this model was evaluated.
One group of 8 mice was treated with 40 mg/kg ISIS 482584 administered subcutaneously twice a week for 3 weeks (weekly dose of 80 mg/kg). A second group of 8 mice was treated with 40 mg/kg of the control oligonucleotide, ISIS 141923, administered subcutaneously twice a week for 3 weeks (weekly dose of 80 mg/kg). A third group of 8 mice was treated with PBS administered subcutaneously twice a week for 3 weeks. On day 14, all the groups were treated with 12.5 mg/kg ISIS 461756 administered subcutaneously twice a week for 3 weeks (weekly dose of 25 mg/kg). A control group of mice was treated with PBS administered subcutaneously twice a week for 3 weeks but was not administered ISIS 461756.
At the end of the treatment period, all the groups were injected with 30 mg/kg of Evans Blue solution into the tail vein. The mice were sacrificed 30 min after the Evans Blue solution administration and colons, feet, ears, and intestines were harvested. The liver was also harvested for RNA analysis.
RNA was isolated from the liver for RT-PCR analysis of C1-INH and PKK mRNAs. The primer probe set for C1-INH is RTS3218 (forward sequence […], designated herein as SEQ ID NO: 2234; reverse sequence […], designated herein as SEQ ID NO: 2235; probe sequence […], designated herein as SEQ ID NO: 2236). The primer probe set for PKK is RTS3287 (forward sequence […], designated herein as SEQ ID NO: 2237; reverse sequence […], designated herein as SEQ ID NO: 2238; probe sequence […], designated herein as SEQ ID NO: 2239). The results are presented in Table 79 as percent inhibition compared to the PBS control not treated with ISIS 461756.

ISIS 482584: 5-10-5 MOE gapmer targeting murine PKK, GGCATATTGGTTTTTGGAAT; SEQ ID NO: 2244 (antisense eG*eG*e[5mC]*eA*eT*dA*dT*dT*dG*dG*dT*dT*dT*dT*dT*eG*eG*eA*eA*eT)
Quantification of HMWK by densitometer ([1]; 10 mg/kg/week): 507 Intensity Units | Quantification of HMWK cleavage product by densitometer ([1]; 10 mg/kg/week): 414774 Intensity Units | Quantification of HMWK by densitometer ([1]; 20 mg/kg/week): 608 Intensity Units | Quantification of HMWK cleavage product by densitometer ([1]; 20 mg/kg/week): 403360 Intensity Units | Quantification of HMWK by densitometer ([1]; 40 mg/kg/week): 873 Intensity Units | Quantification of HMWK cleavage product by densitometer ([1]; 40 mg/kg/week): 388135 Intensity Units | Quantification of HMWK by densitometer ([1]; 80 mg/kg/week): 7279 Intensity Units | Quantification of HMWK cleavage product by densitometer ([1]; 80 mg/kg/week): 204482 Intensity Units | Quantification of HMWK by densitometer ([1]; 160 mg/kg/week): 21358 Intensity Units | Quantification of HMWK cleavage product by densitometer ([1]; 160 mg/kg/week): 19936 Intensity Units | HMWK cleavage product ([1]; vs PBS control, dose-dependent): lower HMWK cleavage product | levels of HMWK ([1]; vs PBS control, dose-dependent): higher levels of HMWK | % inhibition of mouse PKK mRNA levels ([2]; 12.5 nM): 0% | % inhibition of mouse PKK mRNA levels ([2]; 25.0 nM): 47% | % inhibition of mouse PKK mRNA levels ([2]; 50.0 nM): 27% | % inhibition of mouse PKK mRNA levels ([2]; 100.0 nM): 60% | % inhibition of mouse PKK mRNA levels ([2]; 200.0 nM): 82% | IC50 ([2]; 12.5-200.0 nM, ~24 h, read-out: half maximal inhibitory concentration (IC50)): 0.084 µM | Percent inhibition of PKK mRNA expression compared to the untreated PBS control ([3]; liver, all groups ISIS 461756 25 mg/kg/wk, pretreatment PBS or oligonucleotide 80 mg/kg/wk sc 3 weeks): 78% | PKK expression ([3]; mouse liver, 40 mg/kg s.c. twice a week for 3 weeks): significantly reduced PKK expression
